This experiment relates to chondrocytes. The experiment is described as follows: Cell proliferation ([^3 H]-thymidine incorporation) after PDT. It is filed as cell-based, calf. The note with it: Bos taurus, Chondrocyte. On the procedure:
Chondrocytes were harvested by established collagenase digestion techniques. Articular cartilage was aseptically dissected from the femoral condyles and patellas of calf knee joints. […] The resulting cell suspensions were filtered through a cell sieve and washed twice with serum free TCM. The cells were resuspended in the same medium containing 5% heat inactivated fetal calf serum (BioWhittaker, Walkerville, Md.) (FCS-TCM) for seeding. Cell number was determined using a hemocytometer. […] Cells were plated at a density of 1.5×10^6 cells/ml into Falcon 96 well cell culture plates (Becton Dickinson Labware, Franklin Lakes, N.J.) for the cytotoxicity and cell proliferation experiments and into Falcon 6 well cell culture plates for the Photosensitizer uptake studies. Chondrocyte cultures were maintained at 37° C. in a 5% CO2 incubator for 1 week prior to initiation of the photosensitization studies.
Photofrin® (PF) and Benzoporphyrin Derivative (BPD-MA) were obtained from Quadralogic Technologies (Vancouver, Canada). Chlorin e6 (Ce6) and chloroaluminum phthalocyanine (CASP) were obtained from Ciba Geigy (Basel, Switzerland) and Porphyrin Products (Logan, Utah), respectively. All photosensitizers were added to the chondrocytes in the dark 3 hours prior to light exposure. Photosensitizer stock solutions were prepared immediately prior to each experiment; serial dilutions were prepared using FCS-TCM. All irradiations were done at the appropriate excitation wavelengths for each photosensitizer (BPD-MA 690 nm; Ce6 658 nm; CASP 680 nm; PF 624 nm) using light provided by an argon ion pumped dye laser (Coherent, Palo Alto, Calif.). Following light exposure, control and irradiated cells were maintained for 72 hours prior to the assessment of cellular viability and proliferation rates. Cells were examined daily by light microscopy for morphologic changes.
Cell proliferation was determined by [^3 H]-thymidine incorporation for all chondrocyte cultures 72 hours after drug and/or light exposure. The cell cultures were labeled with 5 μCi/ml [^3 H]-thymidine (35 Ci/mmol) (ICN, Irvine, Calif.) in FCS-TCM. After incubation for 20 hours, the radioactive medium was removed and the cells were rinsed three times with phosphate buffered saline (PBS) to remove unincorporated label. The cells were then lysed with buffer containing 150 mM Tris pH 8.0, 200 mM sodium chloride, 10% triton X-100 and 1% SDS. [^3 H]-thymidine incorporation was determined by liquid scintillation methods and the data are expressed as mean % control ±S.E.M. of samples irradiated without photosensitizer addition.
Articular chondrocytes were maintained in primary culture for five days after plating. Photosensitizer stocks were serially diluted in FCS-TCM and added to triplicate wells. The cells were incubated in the dark for 3 hours. The photosensitizer-containing FCS-TCM was then removed and the cells were rinsed with 1 ml PBS. To digest the extracellular matrix, the cells were then immersed in 1 ml of a solution of 1 mg/ml collagenase and 0.1 mg/ml hyaluronidase in serum-free TCM. The resulting single cell suspensions were transferred to microfuge tubes and were centrifuged at 3.3×g for 5 minutes. The collagenase solution was removed and the cells were rinsed three times with calcium/magnesium-free PBS. Aliquots were taken for cell counting prior to cell lysis with 1 ml 0.1 N NaOH containing 1% SDS. Cell counting was performed by hemocytometer and Coulter counter. Fluorescent spectra of the cell lysates were obtained using a Spex FluoroMax spectrofluorometer (ISA Instruments, Edison, N.J.) at the appropriate excitation/emission wavelengths for each of the four photosensitizers studied. Fluorescence spectra were corrected for background fluorescence. Relative uptake values were obtained by regression analysis of standard curves of known photosensitizer concentrations. […] Values of uptake at the IC50 are shown in fg/cell.
On the technique in general: Uptake of a labelled nucleoside into DNA is a usual measure of proliferation.

SMILES strings stand for the structures. Converted amounts (≈) assume the structure as drawn. Read-outs that look alike come from different tables or passages of the source.

Regarding `C=Cc1c(C)c2cc3nc(c(CC(=O)O)c4[nH]c(cc5nc(cc1[nH]2)C(C)=C5CC)c(C)c4C(=O)O)[C@@H](CCC(=O)O)[C@@H]3C` [Ce6, Chlorin e6], the IC50 (72 hours after drug and/or light exposure, light dose not given, read-out: IC50, inhibition of chondrocyte proliferation ([^3 H]-thymidine incorporation)) is 4.4 µg/mL (≈ 7.37 µM) and the IC50 (concentration inhibiting [^3 H]-thymidine incorporation by 50%, read-out: IC50 (Table 2)) is 4.4 µg/mL (≈ 7.37 µM).

Source of the values: patent US5942534A, “Photodynamic therapy for the treatment of osteoarthritis” (The General Hospital Corporation, priority 1997, dated 1999).
